Read-outs that look alike come from different tables or passages of the source.
Experiments:
male Wistar rats = experiment: general motor activity in an open field; assay type: in vivo, rat; details: 1.0 μg/kg IP, after the plus-maze test, vs vehicle
Protocol: Immediately after each of the plus-maze tests reported above in Section II, animals were tested for general motor activity in an “open field.” Animals were placed into a large clean Plexiglas cage (48×32×40 cm) devoid of bedding. This open field was delineated into equal quadrants by tape on the underside of the cage. Animals were scored for motor activity by counting the number of quadrants traversed in 1 min.

[1] = approximately 7-10 mg/kg/day, intravenous with ticarcillin; cited from earlier work
[2] = in vivo, cited from earlier work

## O=C(O)[C@H]1/C(=C/CO)O[C@@H]2CC(=O)N21 [CLAV, clavulanic acid]
Male Wistar rats
  open field activity (quadrants traversed in 1 min): no significant differences
[1]
  adverse reactions or contraindications: no reported adverse reactions or contraindications
[2]; po
  oral activity and stability: orally active and stable
[2]
  CSF/plasma ratio: 0.25
  elimination half-life: just under two hours
  passage of the blood-brain barrier: readily passes the blood-brain barrier
[2]; listed as Clavulanic acid
  CSF/plasma ratio: around 0.25

Source: patent publication US6610681B1, “Neurotherapeutic clavulanate composition and method” (Revaax Pharmaceuticals, LLC, priority 1999, dated 2003)
